Measured values: ChEMBL document CHEMBL5715954, “Silencing c-Myc translation as a therapeutic strategy through targeting PI3Kδ and CK1ε in hematological malignancies” (Blood, 2017)

Assays:
Set-up in all cases: scale not given: the % may be the effect or the level left
[1] = molecular target: T1, Ephrin type-A receptor 6 (Homo sapiens) (UniProt Q9UF33); assay: Inhibition of human EPHA6 assessed as enzyme activity at 1 uM using poly[Glu:Tyr] (4:1) as substrate preincubated for 20 mins followed by [gamma-33P]-ATP addition and measured after 120 mins by radiometric Hot-SpotSM Kinase assay relative to control
T1 sequence (whole entry): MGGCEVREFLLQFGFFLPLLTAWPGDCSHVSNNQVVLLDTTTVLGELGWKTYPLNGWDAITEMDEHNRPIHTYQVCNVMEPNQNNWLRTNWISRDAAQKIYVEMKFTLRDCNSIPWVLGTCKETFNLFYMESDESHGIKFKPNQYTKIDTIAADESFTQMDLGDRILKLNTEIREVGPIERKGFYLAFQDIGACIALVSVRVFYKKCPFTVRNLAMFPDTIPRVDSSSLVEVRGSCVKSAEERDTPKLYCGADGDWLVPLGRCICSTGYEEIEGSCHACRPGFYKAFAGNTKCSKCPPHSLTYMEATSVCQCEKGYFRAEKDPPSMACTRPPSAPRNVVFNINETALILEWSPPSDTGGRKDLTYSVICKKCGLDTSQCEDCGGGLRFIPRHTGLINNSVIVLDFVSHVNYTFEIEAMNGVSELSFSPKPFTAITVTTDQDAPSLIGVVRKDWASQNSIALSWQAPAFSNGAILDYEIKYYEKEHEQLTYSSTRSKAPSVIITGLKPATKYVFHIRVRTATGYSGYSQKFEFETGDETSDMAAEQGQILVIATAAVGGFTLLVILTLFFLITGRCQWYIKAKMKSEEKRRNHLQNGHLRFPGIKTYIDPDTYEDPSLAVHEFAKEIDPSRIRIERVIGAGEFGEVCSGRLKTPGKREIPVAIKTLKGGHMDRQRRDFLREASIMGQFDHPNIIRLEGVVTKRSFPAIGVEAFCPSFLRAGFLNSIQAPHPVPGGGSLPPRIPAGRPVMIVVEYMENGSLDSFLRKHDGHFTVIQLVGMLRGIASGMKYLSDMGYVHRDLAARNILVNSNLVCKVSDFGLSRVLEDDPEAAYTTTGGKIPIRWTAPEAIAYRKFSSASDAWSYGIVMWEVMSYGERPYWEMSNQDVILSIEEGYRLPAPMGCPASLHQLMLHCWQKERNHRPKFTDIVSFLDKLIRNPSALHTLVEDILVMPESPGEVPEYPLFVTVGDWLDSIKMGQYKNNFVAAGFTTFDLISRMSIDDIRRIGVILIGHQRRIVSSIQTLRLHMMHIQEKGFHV

[2] = molecular target: T2, Cytoplasmic tyrosine-protein kinase BMX (Homo sapiens) (UniProt P51813); assay: Inhibition of human BMX assessed as enzyme activity at 1 uM using poly[Glu:Tyr] (4:1) as substrate preincubated for 20 mins followed by [gamma-33P]-ATP addition and measured after 120 mins by radiometric Hot-SpotSM Kinase assay relative to control
T2 sequence (whole entry): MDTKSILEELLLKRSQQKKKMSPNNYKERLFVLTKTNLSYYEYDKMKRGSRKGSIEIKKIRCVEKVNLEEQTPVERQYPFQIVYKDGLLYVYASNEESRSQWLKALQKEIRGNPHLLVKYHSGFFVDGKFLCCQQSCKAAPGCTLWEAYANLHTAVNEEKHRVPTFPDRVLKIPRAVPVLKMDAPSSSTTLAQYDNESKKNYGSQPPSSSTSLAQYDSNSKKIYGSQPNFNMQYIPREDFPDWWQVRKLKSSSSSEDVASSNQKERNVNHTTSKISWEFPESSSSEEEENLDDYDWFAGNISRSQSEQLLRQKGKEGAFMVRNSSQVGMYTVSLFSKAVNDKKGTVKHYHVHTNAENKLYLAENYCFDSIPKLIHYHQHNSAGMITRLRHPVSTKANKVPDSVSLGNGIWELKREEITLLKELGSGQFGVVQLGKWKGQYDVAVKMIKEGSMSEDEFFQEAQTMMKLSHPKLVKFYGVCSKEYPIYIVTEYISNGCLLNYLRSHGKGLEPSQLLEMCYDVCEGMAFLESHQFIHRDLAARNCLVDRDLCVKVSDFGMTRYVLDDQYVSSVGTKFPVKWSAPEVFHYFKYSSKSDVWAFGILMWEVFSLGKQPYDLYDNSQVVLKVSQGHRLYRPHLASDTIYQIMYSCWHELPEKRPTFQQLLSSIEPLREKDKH

[3] = molecular target: T3, Serine/threonine-protein kinase haspin (Homo sapiens) (UniProt Q8TF76); assay: Inhibition of human Haspin assessed as enzyme activity at 1 uM using histone H3 as substrate preincubated for 20 mins followed by [gamma-33P]-ATP addition and measured after 120 mins by radiometric Hot-SpotSM Kinase assay relative to control
T3 sequence (whole entry): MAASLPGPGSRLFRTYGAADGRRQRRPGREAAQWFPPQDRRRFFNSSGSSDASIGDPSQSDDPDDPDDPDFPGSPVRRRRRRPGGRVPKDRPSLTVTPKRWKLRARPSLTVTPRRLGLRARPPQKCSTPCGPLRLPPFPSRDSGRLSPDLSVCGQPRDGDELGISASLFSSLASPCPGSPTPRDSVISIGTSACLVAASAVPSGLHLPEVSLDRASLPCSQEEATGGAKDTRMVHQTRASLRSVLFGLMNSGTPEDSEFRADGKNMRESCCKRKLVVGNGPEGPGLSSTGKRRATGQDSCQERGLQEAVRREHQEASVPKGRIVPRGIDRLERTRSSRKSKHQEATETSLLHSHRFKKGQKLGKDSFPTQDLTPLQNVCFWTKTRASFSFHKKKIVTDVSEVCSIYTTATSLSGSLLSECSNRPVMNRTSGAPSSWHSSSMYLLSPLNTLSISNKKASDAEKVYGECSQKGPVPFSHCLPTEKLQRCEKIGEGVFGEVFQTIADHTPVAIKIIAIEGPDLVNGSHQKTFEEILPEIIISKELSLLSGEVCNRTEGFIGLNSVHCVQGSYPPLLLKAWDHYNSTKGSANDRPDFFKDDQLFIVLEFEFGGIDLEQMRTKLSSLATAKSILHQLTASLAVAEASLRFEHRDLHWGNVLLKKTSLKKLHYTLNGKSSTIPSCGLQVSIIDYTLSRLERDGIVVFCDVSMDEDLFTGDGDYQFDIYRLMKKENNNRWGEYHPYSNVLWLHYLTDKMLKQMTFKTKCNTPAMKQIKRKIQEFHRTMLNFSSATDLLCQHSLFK

[4] = molecular target: Serine/threonine-protein kinase 33 (Homo sapiens) (UniProt Q9BYT3); assay: Inhibition of human STK33 assessed as enzyme activity at 1 uM using myelin basic protein as substrate preincubated for 20 mins followed by [gamma-33P]-ATP addition and measured after 120 mins by radiometric Hot-SpotSM Kinase assay relative to control
Chain of Serine/threonine-protein kinase 33 (Homo sapiens) (Q9BYT3 whole entry, looked up): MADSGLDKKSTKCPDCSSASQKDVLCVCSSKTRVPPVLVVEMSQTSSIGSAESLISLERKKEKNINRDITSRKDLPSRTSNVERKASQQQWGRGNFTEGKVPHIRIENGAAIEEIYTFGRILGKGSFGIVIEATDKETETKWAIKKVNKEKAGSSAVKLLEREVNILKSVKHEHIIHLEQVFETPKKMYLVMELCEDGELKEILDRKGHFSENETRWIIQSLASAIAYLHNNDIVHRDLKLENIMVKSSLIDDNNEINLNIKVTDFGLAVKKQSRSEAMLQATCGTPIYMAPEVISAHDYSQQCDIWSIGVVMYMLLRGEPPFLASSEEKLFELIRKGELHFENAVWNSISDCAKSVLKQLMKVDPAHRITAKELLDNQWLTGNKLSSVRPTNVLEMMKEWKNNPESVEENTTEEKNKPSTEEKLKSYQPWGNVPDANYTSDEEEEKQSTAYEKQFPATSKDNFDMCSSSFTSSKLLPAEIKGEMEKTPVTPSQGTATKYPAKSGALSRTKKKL

`CC[C@H](Nc1ncnc2[nH]cnc12)c1nc2cccc(F)c2c(=O)n1-c1ccccc1` gave an Activity [1] of 87.7%, an Activity [2] of 87.8% and an Activity [3] of 95.5%. It also gave an Activity [4] of 101%.
`CC(C)Oc1ccc(-c2nn([C@@H](C)c3oc4ccc(F)cc4c(=O)c3-c3cccc(F)c3)c3ncnc(N)c23)cc1F` [UMBRALISIB] showed an Activity [1] of 81.3%, an Activity [2] of 87.3% and an Activity [3] of 93.7%. It also gave an Activity [4] of 106%.
Molecule `C[C@H](Nc1ncnc2nc[nH]c12)c1cc2cccc(Cl)c2c(=O)n1-c1ccccc1` has an Activity [1] of 86.9%, an Activity [2] of 86.4% and an Activity [3] of 96.5%. The Activity [4] was 101%.
